Laboratory results: ChEMBL document CHEMBL1125639, “Synthesis and resolution of (+-)-7-chloro-8-hydroxy-1-(3'-iodophenyl)-3-methyl-2,3,4,5-tetrahydro- 1H-3- benzazepine (TISCH): a high affinity and selective iodinated ligand for CNS D1 dopamine receptor” (J Med Chem, 1991)
pKi: −log10 of the molar value.

Organism: Rattus norvegicus
Assay type: functional, Striatum, Membrane
Description: Inhibition constant of compound on R-(+)-125[I]-8 radioligand binding to rat striatal membranes

Row | Structure (SMILES) | pKi
1 | NCCc1c[nH]c2ccc(O)cc12 [SEROTONIN] | < 5.30
2 | NCCc1ccc(O)c(O)c1 [DOPAMINE] | < 5.52
